We go through six compounds from patent US20220168430A1, “THERAPEUTIC METHODS FOR TREATING HEPATITIS B” (priority 2019, published 2022).

pIC50: −log10 of the molar value. Read-outs that look alike come from different tables or passages of the source.

One series has as its system HBV genome. Put plainly: IC 50 of HBV siRNA duplexes (Table A). Also noted: species or system Hepatitis B virus. The settings on record: siRNA duplex.
Series [1] relates to HBV DNA. Briefly: Serum HBV DNA in pHBV1.3 hydrodynamic injection mouse model of HBV (Example 12). It counts as in vivo, NOD.CB17-Prkdc scid/J mice; HBV genotype D, serotype ayw. Conditions: once daily oral from Day 0: RNA destabilizer 10 mg/kg, encapsidation inhibitor 100 mg/kg, nucleos(t)ide analog 0.4 mg/kg, group mean ± SEM, n=7 or 8, from negative control. As to the method: (§1) On Day −7, 10 micrograms of the plasmid pHBV1.3 (constructed based on details provided in Guidotti, L., et al., Journal of Virology, 1995, 69(10): 6158-6169) was administered to NOD.CB 17-Prkdc^scid/J mice via hydrodynamic injection (HDI; rapid 1.6 mL injection into the tail vein). […] As readouts of the anti-HBV effect of the treatments, serum HBV DNA and serum HBsAg were assessed. Serum HBV DNA concentration in mice was measured using a quantitative PCR assay following total DNA extraction using previously published primers and probe sequences (Tanaka, Y., et al., Journal of Medical Virology, 2004, 72: 223-229). Serum HBsAg concentration in mice was measured using a commercially available ELISA kit (HBsAg EIA 3.0 480 Test Kit, Bio-Rad).
(§2) Animals were treated with RNA destabilizer as follows: Starting on Day 0, a 10 mg/kg dosage of RNA destabilizer was administered orally to animals on a once-daily frequency for a total of seven doses across the duration of the study. Animals were treated with encapsidation inhibitor as follows: Starting on Day 0, a 100 mg/kg dosage of encapsidation inhibitor was administered orally to animals on a once-daily frequency for a total of seven doses across the duration of the study. Animals were treated with nucleos(t)ide analog as follows: Starting on Day 0, a 0.4 mg/kg dosage of nucleos(t)ide analog was administered orally to animals on a once-daily frequency for a total of seven doses across the duration of the study. The RNA destabilizer, the encapsidation inhibitor, and nucleos(t)ide analog were each dissolved in the same co-solvent formulation for administration and negative control animals were administered the co-solvent formulation alone. To calculate treatment-specific effects, the treated groups are compared against negative control (vehicle treated) animals.
(§3) The effect of these treatments was determined by collecting blood on Days −1 (prior to study's treatment phase), 4, and 7 and analyzing it for serum HBV DNA and HBsAg content.

The subject of series [2] is HBV DNA. It counts as in vivo, C57BL/6 mice; HBV serotype Ayw, genotype D. The settings on record: group mean ± SEM, n=6. The procedure: (§4) Prior to treatment start, 1×10^11 viral genomes of an adeno-associated virus (AAV) vector carrying a 1.3-fold overlength copy of an HBV genome (serotype Ayw, genotype D) was administered to C57BL/6 mice via intravenous injection. Introduction of this viral vector results in the expression of HBV DNA and HBV surface antigen (HBsAg) amongst other HBV products. Serum HBV DNA levels in mice was measured using a quantitative polymerase chain reaction (QPCR) assay, HBsAg in serum and liver of mice was measured using an enzyme-linked immunosorbent assay (ELISA), and anti-HBsAg antibodies were measured using ELISA.
(§5) Treatment effects on serum HBV DNA were determined by collecting a small amount of blood on Days 0 (pre-treatment) and 14, as well as from terminal blood collections at Day 42. Treatment effects on HBsAg in serum and liver were determined from terminal sample collections at Day 42.
(§6) Any individual animal samples measured to fall below assay lower limit of quantitation (LLOQ) were reported as the LLOQ value.

The subject of series [3] is HBsAg. Put plainly: Liver HBsAg by ELISA in AAV-HBV mouse model (Example 18). It counts as in vivo, C57BL/6 mice; HBV serotype Ayw, genotype D. Conditions: Study Day 42; siRNA 3 mg/kg s.c. Days 0 and 28, encapsidation inhibitor 100 mg/kg and/or TDF 1 mg/kg oral daily Days 0-41; group mean ± SEM, n=6. The procedure:
as §4, §5, §6
For orientation: ELISA stands for enzyme-linked immunosorbent assay.

Series [4] concerns HBsAg. Briefly: Serum HBsAg in pHBV1.3 hydrodynamic injection mouse model of HBV (Example 12). It counts as in vivo, NOD.CB17-Prkdc scid/J mice; HBV genotype D, serotype ayw. The settings on record: for Serum HBsAg log reduction: once daily oral from Day 0: RNA destabilizer 10 mg/kg, encapsidation inhibitor 100 mg/kg, nucleos(t)ide analog 0.4 mg/kg, group mean ± SEM, n=7 or 8, from negative control. As to the method: as §1, §2, §3

“11m: "double stranded siRNA molecules selected from the group consisting of 1m, 2m, 3m ... 15m" (sense GCCGAUCCAUACUGCGGAAUU; antisense UUCGGCUAGGUAUGACGCCUU; chemistry not fully specified; one strand is listed 3' to 5') [Compound 11m]”: in the series on HBV genome, the pIC50 (usually the negative decadic logarithm of the IC50, by convention in mol/L) was 9.51.

For the compound “12m: "double stranded siRNA molecules selected from the group consisting of 1m, 2m, 3m ... 15m" (sense GCCGAUCCAUACUGCGGAAUU; antisense UUCGGCUAGGUAUGACGCCUU; chemistry not fully specified; one strand is listed 3' to 5') [Compound 12m]”, in the series with HBV genome, the pIC50 is 9.80.

With “13m: "double stranded siRNA molecules selected from the group consisting of 1m, 2m, 3m ... 15m" (sense GCCGAUCCAUACUGCGGAAUU; antisense UUCGGCUAGGUAUGACGCCUU; chemistry not fully specified; one strand is listed 3' to 5') [Compound 13m]”, in the series on HBV genome, the pIC50 is 9.70.

“14m: "double stranded siRNA molecules selected from the group consisting of 1m, 2m, 3m ... 15m" (sense GCUCAGUUUACUAGUGCCAUU; antisense UUCGAGUCAAAUGAUCACGGU; chemistry not fully specified; one strand is listed 3' to 5') [Compound 14m]” had a pIC50 with HBV genome of 9.80.

With `Cn1cnc(COC(=O)N[C@H]2CCc3c(C(=O)Nc4ccc(F)c(Cl)c4)ccc(F)c32)n1` [Encapsidation Inhibitor], the results for the “Serum HBV DNA log reduction” value in the series on HBV DNA [1] (Day 4) and in the series with HBV DNA [1] (Day 7) were 0.94 ± 0.07 log and 0.86 ± 0.12 log, respectively. Besides, the “Serum HBV DNA” value with HBV DNA [2] (Day 0 (pre-treatment)) was 4.45 ± 0.13 log10 copies/microliter; in the series with HBV DNA [2] (Day 14, siRNA 3 mg/kg s.c. Days 0 and 28, encapsidation inhibitor 100 mg/kg and/or TDF 1 mg/kg oral daily) it was 3.89 ± 0.07 log10 copies/microliter; in the series on HBV DNA [2] (Day 42, siRNA 3 mg/kg s.c. Days 0 and 28, encapsidation inhibitor 100 mg/kg and/or TDF 1 mg/kg oral daily Days 0-41) it was 4.49 ± 0.07 log10 copies/microliter. For the same compound, in the series with HBsAg [3], the “Liver HBsAg” value turned out to be 2.03 ± 0.03 log10 IU/mg liver protein. Besides, the “Serum HBsAg log reduction” value is on record as −0.12 ± 0.03 log in the series on HBsAg [4] (Day 4) and 0.07 ± 0.04 log in the series with HBsAg [4] (Day 7).

`COCCCOc1cc2c(nc1OC)-c1cc(=O)c(C(=O)O)cn1[C@H](C(C)C)C2` [RNA destabilizer]: the “Serum HBV DNA log reduction” value in the series on HBV DNA [1] (Day 4) came to 0.48 ± 0.11 log; with HBV DNA [1] (Day 7) it was 0.48 ± 0.10 log. Moreover, the results for the “Serum HBsAg log reduction” value in the series on HBsAg [4] (Day 4) and in the series with HBsAg [4] (Day 7) were 0.75 ± 0.03 log and 0.86 ± 0.04 log, respectively. In the series on HBsAg [4] (mouse, once-daily oral, seven doses), the “effect on viral protein production (serum HBsAg biomarker)” value was “reductive effect on viral protein production”.
